Laboratory results published in US20250092080A1, “FLEX-NUCLEOSIDE ANALOGUES, NOVEL THERAPEUTICS AGAINST VIRUSES” (priority 2022, published 2025).
Values joined by “and” are separate entries in the source; they are usually repeats but may differ in a detail not shown here. Identical values can stand only once. Like-named read-outs stand apart in the source and are kept apart here.

What was measured:
Ebola Virus [1] = test: microbe, parasite or virus in culture; format: cell-based, strain Zaire
Rubella Virus = Rubella Virus antiviral screening, A549; format: cell-based
[2] = Cell viability in A549 (parallel to Rubella screening); format: cell-based; settings: human, A549 cells, RA-0001522
Rift Valley Fever Virus = test: microbe, parasite or virus in culture; format: cell-based
in vitro [3] = test: in vitro
Dengue Virus 2 [4] = test: DENV2 antiviral activity (Tables 11-15); format: cell-based; settings: for IC50: DENV2
Dengue Virus 4 = test: DENV4 antiviral activity (Tables 11-15); format: cell-based
Huh7 cells = settings: human
in vitro [5] = settings: human
Ebola Virus [6] = test: microbe, parasite or virus in culture; format: cell-based; settings: Zaire ebolavirus, Huh-7
[7] = Cytotoxicity printed in the DENV4 lines (Tables 11-15); format: cell-based; settings: cells not given
SARS-CoV-2 (Omicron) = SARS-CoV-2 (Omicron) (Calu3) #1 antiviral activity; format: cell-based; settings: Severe acute respiratory syndrome coronavirus 2; Omicron strain in Calu-3 cells; lab #1
SARS-CoV-2 (WA-1) = test: SARS-CoV-2 (WA)(A549) #1 antiviral activity; format: cell-based; settings: Severe acute respiratory syndrome coronavirus 2; WA-1 strain in A549 cells; lab #1
SARS-CoV-2 = SARS-CoV-2 (A549) #2 antiviral activity; format: cell-based; settings: Severe acute respiratory syndrome coronavirus 2, lab #2
in vitro [8] = settings: human; remark: listed apart in the source
[9] = Cytotoxicity, A549 cells, lab #1; settings: human
Chikungunya Virus = test: CHIKV antiviral activity (Tables 11-15); format: cell-based
[10] = tested on: Venezuelan Equine Encephalitis Virus; test: microbe, parasite or virus in culture; format: cell-based
in vitro [11] = test: in vitro; remark: listed apart in the source
[12] = Cytotoxicity, A549, lab #2; settings: human, A549 cells
[13] = Cytotoxicity printed in the CHIKV line (Table 11)
Epstein-Barr virus = test: microbe, parasite or virus in culture; format: cell-based, strain Akata; settings: human gammaherpesvirus 4, Akata
in vitro [14] = settings: human; remark: listed apart in the source
Dengue Virus 2 [15] = test: microbe, parasite or virus in culture; format: cell-based, strain New Guinea C; settings: Huh-7
Enterovirus-71 = test: organism not typed; format: cell-based
MERS Coronavirus = format: cell-based, strain EMC
SARS-CoV-2 (WA) = test: SARS-CoV-2 (WA)(Calu3) antiviral activity; format: cell-based, WA strain; settings: Severe acute respiratory syndrome coronavirus 2, Calu-3
[16] = Cytotoxicity, Calu3 (WA test); format: cell-based; settings: human, Calu3 cells; Calu3 (WA lines)

SMILES: CNc1nc(N)ncc1-c1cn([C@@H]2O[C@H](COP(=O)(NC(C)C(=O)OC(C)C)Oc3ccccc3)C(O)C2(C)F)cn1 (stereo in doubt) [CDW3-002, propan-2-yl-(2S)-2-(((((2R,3R,4R,5R)-5-(4-(2-amino-4-(methylamino)pyrimidin-5-yl)-1H-imidazol-1-yl)-4-fluoro-3-hydroxy-4-methyloxolan-2-yl)methyl)(phenyl)phosphono)amino) propanoate]
- EC50 (Ebola Virus [1]; Zaire ebolavirus, Vero, read-out: EC50): 30 µM
- IC50 (Rubella Virus): 69.9 µM
- IC90 (Rubella Virus): > 100 µM
- CC50 [2]: 97.2 µM
- IC50 (Rift Valley Fever Virus): 74.9 µM
- IC90 (Rift Valley Fever Virus): > 100 µM
- CC50 (in vitro [3]): > 100 µM

SMILES: COc1ncc(-c2cn([C@@H]3O[C@H](CO[P@@](=O)(N[C@@H](C)C(=O)OC(C)C)Oc4ccccc4)[C@H](O)C3(C)F)cn2)c(OC)n1 (stereo partly shown) [CDW3-007]
- IC50 (Dengue Virus 2 [4]): 45 µM
- IC50 (Dengue Virus 4; DENV4): > 50 µM
- CC50 (Huh7 cells): > 200 µM
- CC50 (in vitro [5]): 274 µM

SMILES: CC(C)OC(=O)[C@H](C)N[P@](=O)(OC[C@H]1O[C@@H](n2cnc(-c3cnc(N)nc3)c2)C(C)(F)[C@H]1O)Oc1ccccc1 (stereo partly shown) [CDW3-014]
- inhibition at 50 µM (Dengue Virus 2 [4]; DENV2, read-out: % inhib): 13.6%
- inhibition at 50 µM (Dengue Virus 4; DENV4, read-out: % inhib): 27%
- IC50 (Ebola Virus [6]): 10.5 µM
- CC50 (in vitro [5]): 33.4 µM

SMILES: COc1ncc(-c2cn([C@@H]3O[C@H](CO[P@@](=O)(N[C@@H](C)C(=O)OC(C)C)Oc4ccccc4)[C@H](O[P@@](=O)(N[C@@H](C)C(=O)OC(C)C)Oc4ccccc4)C3(C)F)cn2)c(OC)n1 (stereo partly shown) [CDW3-015]
- IC50 (Dengue Virus 4; DENV4): 16 µM
- IC90 (Dengue Virus 4; DENV4): 26 µM
- CC50 [7]: > 100 µM
- IC50 (SARS-CoV-2 (Omicron)): 19.7 µM
- IC50 (SARS-CoV-2 (WA-1)): 12.4 µM
- IC50 (SARS-CoV-2): 2.95 µM
- IC50 (Ebola Virus [6]): 47 µM
- CC50 (in vitro [8]): 1.74 µM
- CC50 (in vitro [5]): > 200 µM
- CC50 [9]: > 100 µM

SMILES: CNc1cc(-c2cncn2[C@@H]2O[C@H](CO[P@@](=O)(N[C@@H](C)C(=O)OC(C)C)Oc3ccccc3)[C@H](O[P@@](=O)(N[C@@H](C)C(=O)OC(C)C)Oc3ccccc3)C2(C)F)nc(N)n1 (stereo partly shown) [CEM-034]
- IC50 (Dengue Virus 2 [4]): 14 µM
- IC50 (Dengue Virus 4; DENV4): 18 µM
- IC50 (SARS-CoV-2 (Omicron)): 22.6 µM
- IC50 (SARS-CoV-2 (WA-1)): 13.6 µM
- IC50 (SARS-CoV-2): 6.47 µM
- IC50 (Ebola Virus [6]): 13.5 µM
- EC50 (Chikungunya Virus): 19.9 µM
- EC50 [10]: 19.7 µM
- CC50 (in vitro [8]): 35.4 µM
- CC50 (in vitro [5]): 85 µM
- CC50 (in vitro [11]): > 100 µM
- CC50 [12]: 15.4 µM
- CC50 [9]: 4.05 µM
- CC50 [13]: > 100 µM

SMILES: Cc1ccc(-c2cn([C@@H]3C[C@@H](O)[C@H](CO)O3)c(=O)[nH]c2=O)s1 [CHK-03, 1-((2S,4R,5S)-4-hydroxy-5-(hydroxymethyl)tetrahydrofuran-2-yl)-5-(5-methylthiophen-2-yl)pyrimidine-2,4(1H,3H)-dione]
- EC90 (Epstein-Barr virus): 18.7 µM
- EC50 (Epstein-Barr virus; read-out: EC50): 2.97 µM
- CC50 (in vitro [14]): > 100 µM

SMILES: Nc1nc(=O)n([C@@H]2C[C@@H](O)[C@H](CO)O2)cc1-c1ccco1 [CHK-05, 4-amino-5-(furan-2-yl)-1-((2S,4R,5S)-4-hydroxy-5-(hydroxymethyl)tetrahydrofuran-2-yl)pyrimidin-2(1H)-one]
- EC50 (Epstein-Barr virus; read-out: EC50): 69.9 µM
- EC50 (Dengue Virus 2 [15]): 79 µM
- EC50 (Enterovirus-71): 24 µM

SMILES: Nc1ccn(C[C@@H](CO)OCP(=O)(O)O)c(=O)n1 [Cidofovir, reference compound]
- EC50 (Epstein-Barr virus): 3.92 µM
- EC90 (Epstein-Barr virus): 71.4 µM
- CC50 (in vitro [14]): > 100 µM

SMILES: O=c1nc(NO)ccn1[C@@H]1O[C@H](CO)[C@@H](O)[C@H]1O [EIDD-1931]
- EC50 (MERS Coronavirus): 0.036 µg/mL and 0.034 µg/mL

SMILES: NC(=O)c1nc(F)c[nH]c1=O [Favipiravir, reference compound]
- EC50 (Ebola Virus [1]; Zaire ebolavirus, Vero): 12 µM

SMILES: COc1nc(N)ncc1-c1cn(COCCO)cn1 [JT-001]
- EC90 (Epstein-Barr virus): > 100 µM
- EC50 (Epstein-Barr virus; read-out: EC50): 59.9 µM
- CC50 (in vitro [14]): > 100 µM

SMILES: COc1ncc(-c2cn(COCCO)cn2)c(OC)n1 [JT-004]
- EC90 (Epstein-Barr virus): > 100 µM
- EC50 (Epstein-Barr virus; read-out: EC50): 86.8 µM
- CC50 (in vitro [14]): > 100 µM

SMILES: CCC(CC)COC(=O)[C@H](C)NP(=O)(OCCOCn1cnc(-c2cnc(OC)nc2OC)c1)Oc1ccccc1 (stereo partly shown) [JT-005]
- EC50 (Ebola Virus [1]; read-out: EC50): 12 µM
- CC50 (Vero): > 100 µM

SMILES: COc1ncc(-c2cn(COCCOC(C)=O)cn2)c(OC)n1 [JT-006]
- EC90 (Epstein-Barr virus): > 100 µM
- EC50 (Epstein-Barr virus; read-out: EC50): 79.9 µM
- CC50 (in vitro [14]): > 100 µM

SMILES: CCC(CC)COC(=O)[C@H](C)N[P@](=O)(OCCOCn1cncc1-c1cnc(OC)nc1OC)Oc1ccccc1 [JT-092]
- IC50 (SARS-CoV-2 (WA-1)): 29.7 µM
- IC90 (SARS-CoV-2 (WA-1)): 273 µM
- IC50 (SARS-CoV-2 (WA)): 82.8 µM
- IC90 (SARS-CoV-2 (WA)): 172 µM
- CC50 [16]: > 100 µM
- CC50 [9]: > 100 µM

SMILES: CCC(=O)OCCOCn1cnc(-c2cnc(OC)nc2)c1 [JT-093]
- IC50 (Dengue Virus 2 [4]): 21 µM
- IC50 (Dengue Virus 4; DENV4): > 50 µM

SMILES: CCC(CC)COC(=O)[C@H](C)N[P@](=O)(OCCOCn1cncc1-c1cnc(N)nc1OC)Oc1ccccc1 [JT-096]
- IC50 (Dengue Virus 2 [4]): > 28 µM
- IC50 (Dengue Virus 4; DENV4): > 42 µM
- IC50 (SARS-CoV-2 (WA-1)): 10.5 µM
- IC90 (SARS-CoV-2 (WA-1)): 46.3 µM
- IC50 (SARS-CoV-2 (WA)): 31.4 µM
- IC90 (SARS-CoV-2 (WA)): 106 µM
- CC50 [16]: > 100 µM
- IC50 (Ebola Virus [6]): 52 µM
- CC50 (in vitro [5]): 28 µM
- CC50 [9]: 73.3 µM
